What is called IC50 is the concentration that gives 50% inhibition. Broadly, the inhibition is the percentage by which the read-out fell short of the control.

The target of test [1] is T1, Acetylcholinesterase (Homo sapiens, UniProt P22303). The test is described as follows: Inhibition of AChE (unknown origin).
Test [2] addresses T1, Acetylcholinesterase. Description: Inhibition of AChE (unknown origin) using acetylthiocholine iodide as substrate by Ellman's method. For orientation: In Ellman's method for cholinesterases, released thiocholine reacts with DTNB.
Test [3] addresses T2, Cholinesterase (Homo sapiens, UniProt P06276). Description: Inhibition of BChE (unknown origin) using butyrylthiocholine iodide as substrate by Ellman's method.
Test [4] has as its target High affinity cGMP-specific 3',5'-cyclic phosphodiesterase 9A (Homo sapiens, UniProt O76083). The test is described as follows: Inhibition of PDE9 (unknown origin).
The target in the next test is Histone deacetylase 1 (Homo sapiens, UniProt Q13547). Description: Inhibition of HDAC1 (unknown origin).
For another test, the target named is Histone deacetylase 2 (Homo sapiens, UniProt Q92769). Description: Inhibition of HDAC2 (unknown origin).
The target in test [5] is T3, Protein deacetylase HDAC6 (Homo sapiens, UniProt Q9UBN7).
T3 sequence (Q9UBN7 whole entry): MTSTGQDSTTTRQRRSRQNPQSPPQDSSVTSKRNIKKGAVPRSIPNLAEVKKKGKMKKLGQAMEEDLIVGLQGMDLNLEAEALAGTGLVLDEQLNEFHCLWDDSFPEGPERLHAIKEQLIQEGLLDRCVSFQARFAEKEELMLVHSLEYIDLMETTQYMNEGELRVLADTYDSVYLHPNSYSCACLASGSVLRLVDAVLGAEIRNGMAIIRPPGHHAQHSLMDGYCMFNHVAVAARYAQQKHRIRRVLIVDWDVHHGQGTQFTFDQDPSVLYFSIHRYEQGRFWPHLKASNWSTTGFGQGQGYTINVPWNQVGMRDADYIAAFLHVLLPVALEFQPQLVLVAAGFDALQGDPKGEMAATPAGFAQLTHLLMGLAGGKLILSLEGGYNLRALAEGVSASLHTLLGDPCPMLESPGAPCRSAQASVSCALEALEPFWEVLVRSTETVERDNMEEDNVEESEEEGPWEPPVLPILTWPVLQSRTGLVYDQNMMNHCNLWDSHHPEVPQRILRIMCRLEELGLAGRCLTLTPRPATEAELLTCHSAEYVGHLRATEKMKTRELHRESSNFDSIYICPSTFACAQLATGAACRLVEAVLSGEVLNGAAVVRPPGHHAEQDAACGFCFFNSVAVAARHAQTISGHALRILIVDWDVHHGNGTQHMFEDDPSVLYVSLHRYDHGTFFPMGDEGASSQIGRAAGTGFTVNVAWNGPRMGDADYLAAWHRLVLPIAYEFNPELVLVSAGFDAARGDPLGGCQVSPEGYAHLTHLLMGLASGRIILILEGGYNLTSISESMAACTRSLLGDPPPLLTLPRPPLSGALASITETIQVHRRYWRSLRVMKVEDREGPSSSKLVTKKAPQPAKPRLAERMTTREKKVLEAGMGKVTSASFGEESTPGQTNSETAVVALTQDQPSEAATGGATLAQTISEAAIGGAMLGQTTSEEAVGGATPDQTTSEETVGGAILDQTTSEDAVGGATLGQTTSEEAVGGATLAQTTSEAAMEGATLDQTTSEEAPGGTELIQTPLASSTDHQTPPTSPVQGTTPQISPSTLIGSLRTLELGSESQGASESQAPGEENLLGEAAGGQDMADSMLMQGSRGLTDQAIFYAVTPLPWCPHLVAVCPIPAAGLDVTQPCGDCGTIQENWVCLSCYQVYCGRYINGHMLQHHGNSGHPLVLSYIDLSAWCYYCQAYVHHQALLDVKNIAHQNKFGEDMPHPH
The test is described as follows: Inhibition of HDAC6 (unknown origin).

Test [6] has as its target T4, Amine oxidase [flavin-containing] A (Homo sapiens, UniProt P21397).
T4 sequence (P21397 whole entry): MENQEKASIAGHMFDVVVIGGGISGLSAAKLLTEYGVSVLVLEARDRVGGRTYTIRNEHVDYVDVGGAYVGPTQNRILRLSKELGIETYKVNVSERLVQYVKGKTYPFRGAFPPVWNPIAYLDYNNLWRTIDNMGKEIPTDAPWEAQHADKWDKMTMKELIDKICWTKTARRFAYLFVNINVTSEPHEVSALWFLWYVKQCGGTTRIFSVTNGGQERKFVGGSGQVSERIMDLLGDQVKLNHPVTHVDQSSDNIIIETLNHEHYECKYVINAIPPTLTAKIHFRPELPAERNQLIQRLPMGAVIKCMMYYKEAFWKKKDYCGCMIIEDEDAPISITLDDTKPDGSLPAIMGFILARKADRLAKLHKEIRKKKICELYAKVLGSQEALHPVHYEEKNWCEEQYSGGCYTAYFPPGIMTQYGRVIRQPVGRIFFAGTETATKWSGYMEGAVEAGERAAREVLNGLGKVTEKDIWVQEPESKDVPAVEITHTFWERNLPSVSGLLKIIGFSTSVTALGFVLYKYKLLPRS
Description: Inhibition of human MAO-A.

Test [7] concerns the target T5, Amine oxidase [flavin-containing] B (Homo sapiens, UniProt P27338).
T5 sequence (P27338 whole entry): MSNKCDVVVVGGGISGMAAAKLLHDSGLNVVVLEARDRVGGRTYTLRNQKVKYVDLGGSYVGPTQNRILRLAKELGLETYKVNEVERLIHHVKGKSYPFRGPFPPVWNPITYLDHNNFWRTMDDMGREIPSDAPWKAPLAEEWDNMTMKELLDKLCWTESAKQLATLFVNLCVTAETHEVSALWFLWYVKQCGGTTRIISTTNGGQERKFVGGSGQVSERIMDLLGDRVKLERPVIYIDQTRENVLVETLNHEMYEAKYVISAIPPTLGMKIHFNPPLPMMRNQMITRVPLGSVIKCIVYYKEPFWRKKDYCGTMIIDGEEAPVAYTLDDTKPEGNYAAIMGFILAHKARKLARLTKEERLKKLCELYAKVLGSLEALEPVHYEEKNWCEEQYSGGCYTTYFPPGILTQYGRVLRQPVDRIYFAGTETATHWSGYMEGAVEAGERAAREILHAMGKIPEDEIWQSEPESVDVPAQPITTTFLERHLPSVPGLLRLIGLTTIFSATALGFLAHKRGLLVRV
Description: Inhibition of human MAO-B.

Test [8] deals with T6, Acetylcholinesterase (Electrophorus electricus, UniProt O42275). Description: Inhibition of electric eel AChE.
The target of test [9] is T1, Acetylcholinesterase. Description: Inhibition of recombinant human AChE using acetylthiocholine iodide as substrate by Ellman's method.
In test [10] the target is Cholinesterase (Equus caballus, UniProt P81908). Description: Inhibition of equine serum BChE using butyrylthiocholine iodide measured after 25 mins by Ellman's spectrophotometric method.
Test [11] deals with T4, Amine oxidase [flavin-containing] A. Description: Inhibition of recombinant human MAO-A assessed as fluorescence measured after 30 mins by Amplex Red reagent assay.
In test [12] the target is T5, Amine oxidase [flavin-containing] B. The test is described as follows: Inhibition of recombinant human MAO-B assessed as fluorescence measured after 30 mins by Amplex Red reagent assay.
For test [13], the target named is T1, Acetylcholinesterase. Description: Inhibition of Acetylcholinesterase (unknown origin) activity measured after 15 mins by Amplex Red reagent assay.
A short description of test [14]: Inhibition of Calcium channel (unknown origin). Further details: species or system Homo sapiens.
Test [15] deals with T2, Cholinesterase. Description: Inhibition of human BChE by Ellman's method.
Test [16] deals with Acetylcholinesterase (Electrophorus electricus) (UniProt O42275). The test is described as follows: Inhibition of electric eel AChE using acetylthiocholine as substrate at 9 uM by Ellman's spectrophotometric method relative to control.
Test [17] can be described thus: Inhibition of Cysteine asparaginase (unknown origin). Further details: species or system Homo sapiens.
The target of test [18] is T1, Acetylcholinesterase. Description: Inhibition of human AChE by Ellman's method.
In test [19] the target is T6, Acetylcholinesterase. The test is described as follows: Inhibition of electric eel AChE using ACTI as substrate measured after 30 mins by spectrometric analysis.
The target in the next test is Beta-secretase 1 (Homo sapiens, UniProt P56817). The test is described as follows: Inhibition of BACE1 (unknown origin).
In test [20] the target is T2, Cholinesterase. Description: Inhibition of BChE (unknown origin).

Sequence of Histone deacetylase 1 (Q13547 whole entry): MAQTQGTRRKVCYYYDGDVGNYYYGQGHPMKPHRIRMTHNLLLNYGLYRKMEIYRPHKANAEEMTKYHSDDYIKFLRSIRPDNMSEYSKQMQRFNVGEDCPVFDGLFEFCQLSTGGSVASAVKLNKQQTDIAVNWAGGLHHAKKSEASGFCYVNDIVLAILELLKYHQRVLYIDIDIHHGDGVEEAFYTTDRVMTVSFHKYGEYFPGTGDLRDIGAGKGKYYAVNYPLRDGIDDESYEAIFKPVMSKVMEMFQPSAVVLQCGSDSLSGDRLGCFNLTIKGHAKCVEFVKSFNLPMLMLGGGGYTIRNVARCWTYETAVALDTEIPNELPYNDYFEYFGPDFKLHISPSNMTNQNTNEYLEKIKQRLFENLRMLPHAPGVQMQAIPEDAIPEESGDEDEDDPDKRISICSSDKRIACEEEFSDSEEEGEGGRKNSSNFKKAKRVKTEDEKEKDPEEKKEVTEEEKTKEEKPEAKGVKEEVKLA
T1 sequence (P22303 whole entry): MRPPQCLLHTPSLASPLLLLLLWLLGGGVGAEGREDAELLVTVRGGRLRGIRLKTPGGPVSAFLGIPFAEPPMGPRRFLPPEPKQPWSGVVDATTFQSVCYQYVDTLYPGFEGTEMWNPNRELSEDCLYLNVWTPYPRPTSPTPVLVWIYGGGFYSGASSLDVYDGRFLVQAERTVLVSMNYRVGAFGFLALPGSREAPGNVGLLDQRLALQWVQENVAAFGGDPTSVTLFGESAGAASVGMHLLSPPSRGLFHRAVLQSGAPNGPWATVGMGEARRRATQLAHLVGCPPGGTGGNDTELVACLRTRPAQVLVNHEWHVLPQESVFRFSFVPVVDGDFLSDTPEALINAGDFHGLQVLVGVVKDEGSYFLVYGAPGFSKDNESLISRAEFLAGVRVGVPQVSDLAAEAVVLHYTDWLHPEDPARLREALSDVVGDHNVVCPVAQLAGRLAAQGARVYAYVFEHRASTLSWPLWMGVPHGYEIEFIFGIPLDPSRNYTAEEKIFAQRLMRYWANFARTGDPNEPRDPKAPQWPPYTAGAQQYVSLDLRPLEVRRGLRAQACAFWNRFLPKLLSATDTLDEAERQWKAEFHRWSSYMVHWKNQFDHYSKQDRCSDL
Sequence of High affinity cGMP-specific 3',5'-cyclic phosphodiesterase 9A (O76083 whole entry): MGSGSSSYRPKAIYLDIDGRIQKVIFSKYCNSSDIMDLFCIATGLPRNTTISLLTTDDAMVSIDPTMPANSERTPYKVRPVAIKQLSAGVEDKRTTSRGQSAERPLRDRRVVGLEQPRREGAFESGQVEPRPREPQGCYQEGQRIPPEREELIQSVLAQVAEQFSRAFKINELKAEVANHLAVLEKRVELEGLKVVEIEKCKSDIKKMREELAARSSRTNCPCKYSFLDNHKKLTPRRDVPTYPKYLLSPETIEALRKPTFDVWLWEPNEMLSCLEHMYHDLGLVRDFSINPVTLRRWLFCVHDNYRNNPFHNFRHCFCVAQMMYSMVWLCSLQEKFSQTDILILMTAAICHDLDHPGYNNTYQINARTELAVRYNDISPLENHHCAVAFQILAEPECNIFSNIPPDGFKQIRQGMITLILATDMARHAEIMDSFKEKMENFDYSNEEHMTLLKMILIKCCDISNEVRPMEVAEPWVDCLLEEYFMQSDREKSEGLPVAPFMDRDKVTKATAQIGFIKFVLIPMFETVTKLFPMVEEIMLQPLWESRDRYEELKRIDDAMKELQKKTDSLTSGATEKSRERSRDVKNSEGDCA
T6 sequence (O42275 whole entry): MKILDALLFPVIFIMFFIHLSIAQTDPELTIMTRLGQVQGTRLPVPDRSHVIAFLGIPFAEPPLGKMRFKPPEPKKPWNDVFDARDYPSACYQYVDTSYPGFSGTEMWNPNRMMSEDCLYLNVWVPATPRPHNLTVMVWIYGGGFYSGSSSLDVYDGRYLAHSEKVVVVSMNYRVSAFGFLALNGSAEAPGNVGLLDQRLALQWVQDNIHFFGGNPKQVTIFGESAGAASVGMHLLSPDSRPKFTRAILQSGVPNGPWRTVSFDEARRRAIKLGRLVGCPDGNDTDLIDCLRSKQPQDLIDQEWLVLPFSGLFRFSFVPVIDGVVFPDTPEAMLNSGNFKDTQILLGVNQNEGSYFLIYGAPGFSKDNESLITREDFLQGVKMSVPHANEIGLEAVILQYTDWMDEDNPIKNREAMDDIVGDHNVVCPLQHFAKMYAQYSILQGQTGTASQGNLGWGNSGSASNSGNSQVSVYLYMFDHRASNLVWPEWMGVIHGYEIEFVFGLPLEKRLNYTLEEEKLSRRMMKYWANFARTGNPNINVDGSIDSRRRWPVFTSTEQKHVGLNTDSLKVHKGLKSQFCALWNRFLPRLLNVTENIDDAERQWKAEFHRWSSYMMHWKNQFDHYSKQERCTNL
Sequence of Histone deacetylase 2 (Q92769 whole entry): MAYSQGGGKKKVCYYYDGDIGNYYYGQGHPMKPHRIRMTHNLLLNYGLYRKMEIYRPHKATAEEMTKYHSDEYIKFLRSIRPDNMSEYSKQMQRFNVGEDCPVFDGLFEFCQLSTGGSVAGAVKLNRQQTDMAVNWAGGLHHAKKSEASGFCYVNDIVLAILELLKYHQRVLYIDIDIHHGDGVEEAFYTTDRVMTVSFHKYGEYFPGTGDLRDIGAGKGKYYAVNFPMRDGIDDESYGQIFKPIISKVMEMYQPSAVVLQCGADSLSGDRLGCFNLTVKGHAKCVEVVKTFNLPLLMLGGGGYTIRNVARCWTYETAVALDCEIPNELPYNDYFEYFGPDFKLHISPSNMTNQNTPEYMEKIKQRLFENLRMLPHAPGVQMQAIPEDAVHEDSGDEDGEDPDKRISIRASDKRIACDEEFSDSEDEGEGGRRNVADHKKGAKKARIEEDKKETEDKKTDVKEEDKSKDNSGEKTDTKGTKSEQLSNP
T2 sequence (P06276 whole entry): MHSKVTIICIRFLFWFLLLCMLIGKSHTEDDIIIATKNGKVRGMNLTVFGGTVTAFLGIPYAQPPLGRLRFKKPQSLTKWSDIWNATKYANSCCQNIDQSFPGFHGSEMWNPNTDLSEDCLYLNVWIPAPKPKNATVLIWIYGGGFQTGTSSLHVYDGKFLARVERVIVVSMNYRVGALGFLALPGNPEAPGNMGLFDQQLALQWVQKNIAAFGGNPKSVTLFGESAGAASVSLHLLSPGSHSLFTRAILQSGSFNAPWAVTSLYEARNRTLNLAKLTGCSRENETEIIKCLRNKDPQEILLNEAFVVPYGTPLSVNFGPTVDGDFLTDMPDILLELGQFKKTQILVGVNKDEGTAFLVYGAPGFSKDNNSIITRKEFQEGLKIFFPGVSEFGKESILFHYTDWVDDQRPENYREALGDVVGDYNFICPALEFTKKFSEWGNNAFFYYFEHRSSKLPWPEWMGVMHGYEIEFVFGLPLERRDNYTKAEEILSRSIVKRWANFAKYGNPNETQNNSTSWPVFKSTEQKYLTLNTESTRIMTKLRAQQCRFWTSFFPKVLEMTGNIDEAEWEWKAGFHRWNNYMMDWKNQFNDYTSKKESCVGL
Sequence of Acetylcholinesterase (Electrophorus electricus) (O42275 24-633 limits assumed): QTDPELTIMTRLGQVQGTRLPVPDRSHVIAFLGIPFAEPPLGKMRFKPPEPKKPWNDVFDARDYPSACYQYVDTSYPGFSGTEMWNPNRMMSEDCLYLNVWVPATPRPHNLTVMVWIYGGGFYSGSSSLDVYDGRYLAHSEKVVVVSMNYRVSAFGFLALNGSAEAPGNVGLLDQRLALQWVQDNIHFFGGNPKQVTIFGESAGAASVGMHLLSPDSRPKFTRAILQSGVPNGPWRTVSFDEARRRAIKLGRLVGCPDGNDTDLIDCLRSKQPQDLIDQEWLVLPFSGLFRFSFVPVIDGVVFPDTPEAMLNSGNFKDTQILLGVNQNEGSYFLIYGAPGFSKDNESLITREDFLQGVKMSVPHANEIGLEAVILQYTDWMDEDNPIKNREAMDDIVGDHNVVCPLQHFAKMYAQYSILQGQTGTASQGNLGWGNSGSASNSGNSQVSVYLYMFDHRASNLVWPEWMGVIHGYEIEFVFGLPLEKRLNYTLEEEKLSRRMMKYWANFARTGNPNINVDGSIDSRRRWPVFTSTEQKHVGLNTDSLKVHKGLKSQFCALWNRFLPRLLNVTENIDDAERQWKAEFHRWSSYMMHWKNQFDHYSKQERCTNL
Sequence of Cholinesterase (Equus caballus, UniProt P81908) (P81908 whole entry): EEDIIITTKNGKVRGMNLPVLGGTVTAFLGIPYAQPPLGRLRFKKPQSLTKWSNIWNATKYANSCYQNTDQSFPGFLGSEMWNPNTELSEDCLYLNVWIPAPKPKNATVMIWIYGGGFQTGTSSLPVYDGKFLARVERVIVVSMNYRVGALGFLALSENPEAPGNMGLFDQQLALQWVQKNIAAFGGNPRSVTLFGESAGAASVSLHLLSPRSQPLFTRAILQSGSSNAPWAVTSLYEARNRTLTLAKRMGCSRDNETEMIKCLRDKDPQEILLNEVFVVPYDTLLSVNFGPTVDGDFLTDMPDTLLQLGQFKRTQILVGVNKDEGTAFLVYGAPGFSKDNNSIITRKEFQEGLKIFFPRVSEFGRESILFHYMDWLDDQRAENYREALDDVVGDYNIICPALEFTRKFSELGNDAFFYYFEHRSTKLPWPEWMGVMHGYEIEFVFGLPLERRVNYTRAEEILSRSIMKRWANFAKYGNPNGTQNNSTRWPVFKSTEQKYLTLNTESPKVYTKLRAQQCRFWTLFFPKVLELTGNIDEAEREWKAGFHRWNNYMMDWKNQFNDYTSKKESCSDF

At Acetylcholinesterase [1], `CCOC(=O)C1=C(C)N=C2SC(c3ccc([N+](=O)[O-])cc3)=NN2C1c1ccc(C=O)cn1` (stereo not drawn) displayed an IC50 of 82 nM.

Turning to `COc1cccc(-c2nc(SCCCSc3nc(N)c(C#N)c(-c4cccc(OC)c4)n3)nc(N)c2C#N)c1`, the IC50 against Acetylcholinesterase [2] is 5720 nM.

On to `N#Cc1c(N)nc(SCCCSc2nc(N)c(C#N)c(-c3ccc(Br)cc3)n2)nc1-c1ccc(Br)cc1`, for which, on Cholinesterase [3], the IC50 worked out at 12200 nM.

On to `C[C@@H]1CN(Cc2ccc(CC(=O)CNO)cc2)C[C@H]1c1nc2c(cnn2C2CCOCC2)c(=O)[nH]1`, for which the IC50 turned out to be 8 nM in test [4], 138 nM against Histone deacetylase 1, 1250 nM against Histone deacetylase 2 and 508 nM in [5].

Consider `C#CCCCOc1ccc(-c2cc(-c3ccc(OCCN4CCOCC4)cc3)nc(-c3ccccc3)n2)cc1`, for which the IC50 in test [6] was 740 nM; in test [7], 8600 nM; against Acetylcholinesterase [8] it was 17500 nM.

Regarding `CN(CCCOc1ccc([N+](=O)[O-])cc1)C(=O)c1cnc(N2CCN(c3ccc(C(=O)N4CCOCC4)cc3[N+](=O)[O-])CC2)nc1`, the IC50 on Acetylcholinesterase [9] was 900 nM.

In the case of `CCN(CC)CCCNC1NC(c2ccccc2)=NC2=C1C/C(C(=O)OC)=C\N(C(C)C)CC2` (stereo not drawn), on Cholinesterase [10], the IC50 turned out to be 105 nM.

Regarding `CC(c1nc2c(cnn2C2CCCC2)c(=O)[nH]1)C1CC(Cc2ccc(C(=O)NO)cc2)C1` (stereo not drawn), the IC50 in test [4] is 107 nM; against Histone deacetylase 1 it was 593 nM; against Histone deacetylase 2, 3530 nM; in test [5] it was 40 nM.

`C#CCCCOc1ccc(-c2cc(-c3ccc(OCCN4CCCC4)cc3)nc(-c3ccccc3)n2)cc1`: the IC50 was 750 nM in test [6], above 50000 nM in test [7] and 2190 nM against Acetylcholinesterase [8].

`C#CCNc1ccc(-c2cc(-c3ccc(OCCN4CCOCC4)cc3)nc(N)n2)cc1`: the IC50 amounted to 9940 nM in test [11], 40 nM in [12] and 7210 nM on Acetylcholinesterase [13].

Regarding `CCOC(=O)C1=C(C)N(CCC2CCN(Cc3ccccc3)CC2)C(=O)NC1c1coc2c(Cl)cc(Cl)cc2c1=O` (stereo not drawn), the IC50 in test [14] worked out at 1400 nM.

`CC(c1nc2c(cnn2C2CCCC2)c(=O)[nH]1)N1CC(Cc2ccc(C(=O)Nc3ccccc3N)cc2)C1` (stereo not drawn): the IC50 in [4] was 57 nM; against Histone deacetylase 1, 99 nM; against Histone deacetylase 2 it was 545 nM; in test [5], above 10000 nM.

`COC(=O)/C1=C/N(C(C)C)CCc2nc(-c3ccccc3)[nH]c(=O)c2C1` displayed an IC50 against Cholinesterase [10] of 1300 nM.

Turning to `N#CC1C(N)N2CCCNC2C(C#N)C12C(=O)Nc1ccc(Br)cc12` (stereo not drawn), on Cholinesterase [15], the IC50 is 17500 nM.

The compound `c1ccc(CNCCCCCCNc2ncccn2)cc1` displayed an inhibition in [16] of 92.9%.

Consider `CCN(CCCCCn1c(C)cc(=O)n(CCCCCN(CC)Cc2ccccc2C#N)c1=O)Cc1ccccc1C#N`, for which the IC50 on Acetylcholinesterase [9] is 7300 nM.

`CC1(C)CC(=O)c2c(N)nc(Nc3ccccc3)nc2C1` showed an IC50 in test [17] of 22 nM.

In the case of `N#CC1C(N)N2CCCNC2C(C#N)C12C(=O)Nc1ccccc12` (stereo not drawn), on Acetylcholinesterase [18], the IC50 came out at 4040 nM.

As to `CCN(CCCCCn1c(C)cc(=O)n(CCCCCN(CC)Cc2cccc(C(=O)OC)c2)c1=O)Cc1cccc(C(=O)OC)c1`, the IC50 on Acetylcholinesterase [9] was found to be 290 nM.

Compound `COc1cccc(C2C3=C(CCCC3=O)Oc3nc(C)[nH]c(=O)c32)c1` (stereo not drawn) showed an IC50 at Acetylcholinesterase [19] of 6500 nM.

On Beta-secretase 1, `COc1cccc(-c2csc(NC(=O)CSc3nc(N)cc(N)n3)n2)c1` returned an IC50 of 1400 nM.

Consider `Cc1cccc(-c2nccc(N3CCOCC3)n2)c1`, for which the IC50 against Acetylcholinesterase [1] was determined as 430 nM; against Cholinesterase [20] it was 2500 nM.

`O=C(NCCCCCCNc1ncccn1)c1ccccc1` displayed an inhibition in [16] of 2.5%.

Turning to `C#CCOc1ccc(-c2cc(-c3ccc(OCCN4CCOCC4)cc3)nc(N)n2)cc1`, the figures for the IC50 (in [11]; in [12]; against Acetylcholinesterase [13]) were 18 nM, above 50000 nM and 30500 nM, respectively.

On Acetylcholinesterase [18], `Cc1ccc(O)c(CNc2c(N)n(C)c(=O)n(C)c2=O)c1` displayed an IC50 of 4.65 nM.

These data come from ChEMBL document CHEMBL6114958, “Progress in the study of anti-Alzheimer's disease activity of pyrimidine-containing bioactive molecules” (Eur J Med Chem, 2025).
